This note sets out measurements from patent US5505944A, “Physiologically active substance NK175203, process for production thereof and pharmaceutical use thereof” (Nippon Kayaku Kabushiki Kaisha, priority 1992, dated 1996).

The test system of this assay is bone marrow cells. Briefly: Bone marrow cell proliferation activity (uptake of [3H]-thymidine). Conditions: GM-CSF 100 U/ml alone, NK175203 0 μg/ml. Type of assay: cell-based, C57BL/6 mouse. The protocol: The femur was withdrawn from C57BL/6 mouse (10 weeks old) and the bone marrow cells were washed out in Eagle's MEM medium. After allowing to stand at 37° C. for 2 hours in 5% CO2, the supernatant was gently taken to recover the suspended cells alone. The cells were centrifuged at 1200 rpm for 5 minutes to collect the cells. After rinsing with α-MEM medium, the cells were suspended in 20% FBS-containing α-MEM medium. The thus obtained bone marrow cells were inoculated on a 96-well plate in a concentration of 7.5×10^5 cells/200 μl/well, together with the physiologically active substance NK175203 of the present invention or GM-CSF (Lantrell, M. A. et al., Proc. Natl. Acad. Sci., 8.2, 6250-6254, 1985). Incubation was then performed at 37° C. for 112 hours in 5% CO2. Finally ^3 H-thymidine of 37 KBq was added to the system. After culturing for 8 hours, uptake of ^3 H-thymidine into the cells was determined by a liquid scintillation counter.

In the case of “GM-CSF: GM-CSF (Lantrell, M. A. et al., Proc. Natl. Acad. Sci.)”, the “Uptake of [3H]-Thymidine, mean ± standard error” value came out at 33484.4 ± 2136.1. The “Uptake of [3H]-Thymidine, %” value (reference (100%) of the GM-CSF series) is recorded as 100%.
